Common to all, as to type: biochemical
The target of one assay is GST-tagged SIK3 (Homo sapiens (Human), UniProt Q9Y2K2). The assay is described as follows: SIK3 inhibition test (ADP-Glo Max Assay). Conditions: enzyme 100 nM, AMARA Peptide 100 μM, ATP 1 mM, 2 hours room temperature. In a few lines: (§1)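 GST-tagged human SIK1, SIK2 and SIK3 at 20 nM, 3 nM and 100 nM final in Tris pH 7.5 buffer, with AMARA peptide (200 μM for SIK1/SIK2, 100 μM for SIK3), 1 mM ATP and 5 mM MgCl2. Reaction ran 2 h at room temperature. ADP read by ADP-Glo Max luminescence, and IC50 fitted from 16 concentrations.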
(In general: In ADP-Glo the light output rises with the ADP produced.)

Another assay addresses GST-tagged SIK1 (Homo sapiens (Human), UniProt P57059). The assay is described as follows: SIK1 inhibition test (ADP-Glo Max Assay). Particulars: enzyme 20 nM, AMARA Peptide 200 μM, ATP 1 mM, 2 hours room temperature. In a few lines: as §1
In another assay the target is GST-tagged SIK2 (Homo sapiens (Human), UniProt Q9H0K1). Put plainly: SIK2 inhibition test (ADP-Glo Max Assay). Conditions: enzyme 3 nM, AMARA Peptide 200 μM, ATP 1 mM, 2 hours room temperature. The gist of the method: as §1

23 compounds from US20260062387A1, “SALT-INDUCIBLE KINASE INHIBITOR COMPOUND AND PHARMACEUTICAL COMPOSITION INCLUDING THE SAME” (MITSUBISHI TANABE PHARMA CORPORATION, priority 2023, published 2026) can be followed below.

Sequence of GST-tagged SIK1 (P57059 whole entry): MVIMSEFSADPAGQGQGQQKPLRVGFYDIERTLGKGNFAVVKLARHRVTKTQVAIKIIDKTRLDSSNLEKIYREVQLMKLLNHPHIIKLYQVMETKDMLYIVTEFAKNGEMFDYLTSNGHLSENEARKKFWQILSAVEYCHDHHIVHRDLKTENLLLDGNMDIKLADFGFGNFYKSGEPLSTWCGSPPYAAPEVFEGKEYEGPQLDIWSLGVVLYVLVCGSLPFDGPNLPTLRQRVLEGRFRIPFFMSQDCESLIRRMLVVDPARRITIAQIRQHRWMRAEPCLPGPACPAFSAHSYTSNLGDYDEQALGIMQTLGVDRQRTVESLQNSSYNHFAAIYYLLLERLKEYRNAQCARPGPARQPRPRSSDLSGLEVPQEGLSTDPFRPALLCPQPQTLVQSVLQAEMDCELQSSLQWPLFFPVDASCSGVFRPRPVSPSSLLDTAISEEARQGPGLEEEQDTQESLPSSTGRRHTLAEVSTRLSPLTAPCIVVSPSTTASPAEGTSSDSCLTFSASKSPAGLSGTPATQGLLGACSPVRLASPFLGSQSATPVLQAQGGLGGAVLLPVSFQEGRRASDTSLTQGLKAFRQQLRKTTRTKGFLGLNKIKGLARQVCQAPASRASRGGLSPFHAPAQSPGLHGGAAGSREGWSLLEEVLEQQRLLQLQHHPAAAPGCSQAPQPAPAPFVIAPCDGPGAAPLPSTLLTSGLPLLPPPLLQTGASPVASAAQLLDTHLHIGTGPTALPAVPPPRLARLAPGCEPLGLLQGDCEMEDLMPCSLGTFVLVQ
Sequence of GST-tagged SIK2 (Q9H0K1 whole entry): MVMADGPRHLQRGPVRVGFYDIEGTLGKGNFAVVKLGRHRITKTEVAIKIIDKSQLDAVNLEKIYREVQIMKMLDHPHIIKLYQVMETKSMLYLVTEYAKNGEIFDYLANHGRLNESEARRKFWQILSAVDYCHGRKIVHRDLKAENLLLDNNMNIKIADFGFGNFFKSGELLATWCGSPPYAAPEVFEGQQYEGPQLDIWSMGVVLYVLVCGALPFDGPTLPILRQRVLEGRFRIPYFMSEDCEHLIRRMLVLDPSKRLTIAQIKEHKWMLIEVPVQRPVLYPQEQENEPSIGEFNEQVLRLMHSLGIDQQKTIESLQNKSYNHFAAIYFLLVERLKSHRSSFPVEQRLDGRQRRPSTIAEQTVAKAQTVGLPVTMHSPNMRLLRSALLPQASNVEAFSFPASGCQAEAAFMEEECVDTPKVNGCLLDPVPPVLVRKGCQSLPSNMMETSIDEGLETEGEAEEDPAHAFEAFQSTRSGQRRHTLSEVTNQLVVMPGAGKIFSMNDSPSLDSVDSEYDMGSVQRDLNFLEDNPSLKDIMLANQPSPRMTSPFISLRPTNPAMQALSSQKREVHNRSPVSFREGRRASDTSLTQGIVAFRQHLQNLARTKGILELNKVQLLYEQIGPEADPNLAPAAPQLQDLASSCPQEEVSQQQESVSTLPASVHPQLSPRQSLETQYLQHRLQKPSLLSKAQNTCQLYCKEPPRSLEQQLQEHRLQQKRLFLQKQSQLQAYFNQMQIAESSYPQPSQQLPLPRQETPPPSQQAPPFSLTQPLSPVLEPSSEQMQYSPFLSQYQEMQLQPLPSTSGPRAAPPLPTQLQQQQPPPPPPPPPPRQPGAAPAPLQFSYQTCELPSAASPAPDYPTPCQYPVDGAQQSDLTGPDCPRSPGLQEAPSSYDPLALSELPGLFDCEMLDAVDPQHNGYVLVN
Sequence of GST-tagged SIK3 (Q9Y2K2 whole entry): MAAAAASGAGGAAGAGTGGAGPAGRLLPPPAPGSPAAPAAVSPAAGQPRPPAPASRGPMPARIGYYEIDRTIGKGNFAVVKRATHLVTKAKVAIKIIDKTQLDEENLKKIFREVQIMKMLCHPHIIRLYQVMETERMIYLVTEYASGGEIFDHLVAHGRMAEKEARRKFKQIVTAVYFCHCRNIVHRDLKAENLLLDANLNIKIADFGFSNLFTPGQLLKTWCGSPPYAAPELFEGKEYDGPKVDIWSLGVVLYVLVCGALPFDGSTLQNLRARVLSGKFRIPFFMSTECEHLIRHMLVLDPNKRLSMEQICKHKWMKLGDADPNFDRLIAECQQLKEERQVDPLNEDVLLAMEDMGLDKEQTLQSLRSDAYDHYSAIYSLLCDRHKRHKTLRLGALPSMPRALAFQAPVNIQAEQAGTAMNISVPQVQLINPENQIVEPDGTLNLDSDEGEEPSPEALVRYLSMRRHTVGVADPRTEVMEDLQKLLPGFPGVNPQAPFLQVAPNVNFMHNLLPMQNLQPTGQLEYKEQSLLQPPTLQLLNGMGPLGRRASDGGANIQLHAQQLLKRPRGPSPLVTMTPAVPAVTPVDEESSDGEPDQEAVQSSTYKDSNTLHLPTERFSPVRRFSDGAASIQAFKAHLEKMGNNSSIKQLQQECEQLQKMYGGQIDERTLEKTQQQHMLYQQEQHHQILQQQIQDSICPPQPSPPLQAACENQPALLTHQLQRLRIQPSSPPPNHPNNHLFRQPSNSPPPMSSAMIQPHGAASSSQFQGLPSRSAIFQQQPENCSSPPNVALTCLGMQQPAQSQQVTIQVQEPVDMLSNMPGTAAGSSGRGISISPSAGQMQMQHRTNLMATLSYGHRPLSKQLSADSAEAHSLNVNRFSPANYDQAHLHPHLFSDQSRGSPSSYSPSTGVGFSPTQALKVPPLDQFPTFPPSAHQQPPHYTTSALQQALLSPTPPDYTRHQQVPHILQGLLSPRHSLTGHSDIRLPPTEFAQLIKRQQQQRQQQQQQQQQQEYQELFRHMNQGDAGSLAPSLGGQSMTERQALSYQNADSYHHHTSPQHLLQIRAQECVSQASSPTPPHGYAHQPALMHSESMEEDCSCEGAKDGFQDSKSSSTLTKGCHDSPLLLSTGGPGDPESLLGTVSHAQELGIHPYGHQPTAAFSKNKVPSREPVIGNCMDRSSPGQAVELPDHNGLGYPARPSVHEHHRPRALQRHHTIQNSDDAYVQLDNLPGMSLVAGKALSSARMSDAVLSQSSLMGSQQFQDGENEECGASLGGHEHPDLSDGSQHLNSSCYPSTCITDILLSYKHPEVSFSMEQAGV

Broadly, the IC50 is the concentration that gives 50% inhibition. Low values mean higher potency, high ones lower potency. As for `COc1cc(-c2c3c(OC(F)F)cc(-c4cnn(C)c4)cc3nn2C)cc(OC(F)F)c1C(=O)N[C@@H]1C[C@@H]1F` [Example 5, 2-(difluoromethoxy)-4-[4-(difluoromethoxy)-2-methyl-6-(1-methylpyrazol-4-yl)indazol-3-yl]-N-[(1R,2S)-2-fluorocyclopropyl]-6-methoxybenzamide], the results for the IC50 at GST-tagged SIK3, at GST-tagged SIK1 and on GST-tagged SIK2 were 7.6 nM, 10.8 nM and 5 nM, respectively.
For `COc1cc(-c2c3c(C#N)cc(-c4cnn(CCC(C)(C)O)c4)cc3nn2C)cc(OC(F)F)c1C(=O)NCC1(F)CC1` [Example 90], in that order: 7.9 nM, 17.8 nM and 10.4 nM.
For `COc1cc(-c2c3c(C(F)F)cc(-c4cnn([C@H]5CCOC5)c4)cc3nn2C)cc(OC(F)F)c1C(N)=O` [Example 158, 2-(difluoromethoxy)-4-[4-(difluoromethyl)-2-methyl-6-[1-[(3S)-oxolan-3-yl]pyrazol-4-yl]indazol-3-yl]-6-methoxybenzamide] the same measures were 3.6 nM, 11.7 nM and 2.2 nM.
As for `COc1cc(-c2c3c(C#N)cc(-c4cnn(CC(=O)N(C)C)c4)cc3nn2C)cc(OC(F)F)c1C(=O)NCC1(F)CC1` [Example 98, 4-[4-cyano-6-[1-[2-(dimethylamino)-2-oxoethyl]pyrazol-4-yl]-2-methylindazol-3-yl]-2-(difluoromethoxy)-N-[(1-fluorocyclopropyl)methyl]-6-methoxybenzamide], the IC50 was 10.3 nM against GST-tagged SIK3, 17.9 nM against GST-tagged SIK1 and 10.5 nM at GST-tagged SIK2.
As for `COc1cc(-c2c3c(C#N)cc(-c4cnn(C)c4)cc3nn2C)cc(OC(F)F)c1C(N)=O` [Example 73, 4-[4-cyano-2-methyl-6-(1-methylpyrazol-4-yl)indazol-3-yl]-2-(difluoromethoxy)-6-methoxybenzamide], the IC50 against GST-tagged SIK3 was found to be 6.5 nM; at GST-tagged SIK1, 17.4 nM; at GST-tagged SIK2, 3.8 nM.
For `COc1cc(-c2c3c(OCc4ccc(C)nc4)cc(-c4cnn(C)c4)cc3nn2C)cc(OC(F)F)c1C(=O)N1CC(O)(C(F)(F)F)C1` [Example 50, [2-(difluoromethoxy)-6-methoxy-4-[2-methyl-6-(1-methylpyrazol-4-yl)-4-[(6-methylpyridin-3-yl)methoxy]indazol-3-yl]phenyl]-[3-hydroxy-3-(trifluoromethyl)azetidin-1-yl]methanone], in that order: 17.1 nM, 6.8 nM and 5 nM.
On to `COc1cc(-c2c3c(C#N)cc(-c4cnn(CC(F)F)c4)cc3nn2C)cc(OC(F)F)c1C(N)=O` [Example 102, 4-[4-cyano-6-[1-(2,2-difluoroethyl)pyrazol-4-yl]-2-methylindazol-3-yl]-2-(difluoromethoxy)-6-methoxybenzamide], for which the figures for the IC50 against GST-tagged SIK3, against GST-tagged SIK1 and against GST-tagged SIK2 were 5.1 nM, 19.2 nM and 5.3 nM, respectively.
With `CCn1cc(-c2cc(OC)c3c(-c4cc(OC(F)F)c5c(c4)[C@@H](C)CNC5=O)n(C)nc3c2)cn1` (single isomer, unassigned) [Example 180], the figures for the IC50 on GST-tagged SIK3, against GST-tagged SIK1 and against GST-tagged SIK2 were 12.4 nM, 13.2 nM and 5.1 nM, respectively.
For `COc1cc(-c2c3c(C#N)cc(-c4cnn(CC5CC5)c4)cc3nn2C)cc(OC(F)F)c1C(=O)N[C@@H]1C[C@@H]1F` [Example 32, 4-[4-cyano-6-[1-(cyclopropylmethyl)pyrazol-4-yl]-2-methylindazol-3-yl]-2-(difluoromethoxy)-N-[(1R, 2S)-2-fluorocyclopropyl]-6-methoxybenzamide], the IC50 is 8.9 nM at GST-tagged SIK3, 5 nM against GST-tagged SIK1 and 4.5 nM against GST-tagged SIK2.
On to `COc1cc(-c2c3c(C#N)cc(/C=C/c4cnn(C)c4)cc3nn2C)cc(OC(F)F)c1C(=O)N[C@@H]1C[C@@H]1F` [Example 40, 4-[4-cyano-2-methyl-6-[(E)-2-(1-methylpyrazol-4-yl)ethenyl]indazol-3-yl]-2-(difluoromethoxy)-N-[(1R,2S)-2-fluorocyclopropyl]-6-methoxybenzamide], for which the values for the IC50 against GST-tagged SIK3, against GST-tagged SIK1 and on GST-tagged SIK2 were 2.1 nM, 4.9 nM and 3.7 nM, respectively.
`COc1cc(-c2c3c(C#N)cc(-c4cnn(CC5(O)CC5)c4)cc3nn2C)cc(OC(F)F)c1C(=O)NCC1(F)CC1` [Example 83, 4-[4-cyano-6-[1-[(1-hydroxycyclopropyl)methyl]pyrazol-4-yl]-2-methylindazol-3-yl]-2-(difluoromethoxy)-N-[(1-fluorocyclopropyl)methyl]-6-methoxybenzamide]: the IC50 came out at 10.2 nM at GST-tagged SIK3, 10.5 nM on GST-tagged SIK1 and 8.1 nM against GST-tagged SIK2.
For `CC1CNC(=O)c2c(OC(F)F)cc(-c3c4c(C#N)cc(-c5cnn(C)c5)cc4nn3C)cc21` (stereo not drawn) [Example 160, 3-[8-(difluoromethoxy)-4-methyl-1-oxo-3,4-dihydro-2H-isoquinolin-6-yl]-2-methyl-6-(1-methylpyrazol-4-yl)indazol-4-carbonitrile], in that order: 3 nM, 7.5 nM and 1 nM.
Turning to `COc1cc(-c2c3c(C#N)cc(-c4cnn(C(C)C)c4)cc3nn2C)cc2c1C(=O)NC[C@@H]2C` (single isomer, unassigned) [Example 167], the IC50 at GST-tagged SIK3 was 4.1 nM; at GST-tagged SIK1, 8.5 nM; against GST-tagged SIK2, 1.7 nM.
On to `COCCn1cc(-c2cc(C#N)c3c(-c4cc(OC(F)F)c5c(c4)[C@@H](C)CNC5=O)n(C)nc3c2)cn1` (single isomer, unassigned) [Example 172], for which the IC50 was 7 nM against GST-tagged SIK3, 19.5 nM at GST-tagged SIK1 and 7.8 nM on GST-tagged SIK2.
Turning to `COCCCn1cc(-c2cc(C#N)c3c(-c4cc(OC)c5c(c4)C(C)(C)CNC5=O)n(C)nc3c2)cn1` [Example 151, 3-(8-methoxy-4,4-dimethyl-1-oxo-2,3-dihydroisoquinolin-6-yl)-6-[1-(3-methoxypropyl)pyrazol-4-yl]-2-methylindazole-4-carbonitrile], the IC50 against GST-tagged SIK3 was 14.2 nM; against GST-tagged SIK1 it was 9.8 nM; at GST-tagged SIK2, 3.5 nM.
In the case of `C[C@H]1CNC(=O)c2c(OC(F)F)cc(-c3c4c(C#N)cc(-c5cnn(C)c5)cc4nn3C)cc21` (single isomer, unassigned) [Example 182], the half-inhibitory concentration (IC50) at GST-tagged SIK3 was 2 nM; against GST-tagged SIK1 it was 6.4 nM; against GST-tagged SIK2, 2.5 nM.
As for `COc1cc(-c2c3c(C#N)cc(-c4cnn(CC5CCOC5)c4)cc3nn2C)cc(OC(F)F)c1C(=O)NCC1(F)CC1` (stereo not drawn) [Example 78, 4-[4-cyano-2-methyl-6-[1-(oxolan-3-ylmethyl)pyrazol-4-yl]indazol-3-yl]-2-(difluoromethoxy)-N-[(1-fluorocyclopropyl)methyl]-6-methoxybenzamide], the IC50 against GST-tagged SIK3 stood at 6.7 nM; against GST-tagged SIK1 it was 12.6 nM; against GST-tagged SIK2 it was 5.4 nM.
As for `CCCn1cc(-c2cc(C#N)c3c(-c4cc(OC)c(C(N)=O)c(OC(F)F)c4)n(C)nc3c2)cn1` [Example 96, 4-[4-cyano-2-methyl-6-(1-propylpyrazol-4-yl)indazol-3-yl]-2-(difluoromethoxy)-6-methoxybenzamide], the IC50 on GST-tagged SIK3 was 5 nM; at GST-tagged SIK1, 14 nM; against GST-tagged SIK2, 3.9 nM.
For `COc1cc(-c2c3c(OCC4COC4)cc(-c4cnn(C)c4)cc3nn2C)cc(OC(F)F)c1C(=O)N1CC(O)(C(F)(F)F)C1` [Example 26, [2-(difluoromethoxy)-6-methoxy-4-[2-methyl-6-(1-methylpyrazol-4-yl)-4-(oxetan-3-ylmethoxy)indazol-3-yl]phenyl]-[3-hydroxy-3-(trifluoromethyl)azetidin-1-yl]methanone] the same measures were 11.2 nM, 7.1 nM and 4.3 nM.
With `COc1cc(-c2c3c(C#N)cc(-c4cnn(CC5(O)CCC5)c4)cc3nn2C)cc(OC(F)F)c1C(=O)NCC1(F)CC1` [Example 84, 4-[4-cyano-6-[1-[(1-hydroxycyclobutyl)methyl]pyrazol-4-yl]-2-methylindazol-3-yl]-2-(difluoromethoxy)-N-[(1-fluorocyclopropyl)methyl]-6-methoxybenzamide], the results for the IC50 at GST-tagged SIK3, at GST-tagged SIK1 and on GST-tagged SIK2 were 12.5 nM, 13.6 nM and 11 nM, respectively.
As to `COc1cc(-c2c3c(C#N)cc(-c4cc(C)ns4)cc3nn2C)cc(OC(F)F)c1C(=O)N[C@@H]1C[C@@H]1F` [Example 21, 4-[4-cyano-2-methyl-6-(3-methyl-1,2-thiazol-5-yl)indazol-3-yl]-2-(difluoromethoxy)-N-[(1R,2S)-2-fluorocyclopropyl]-6-methoxybenzamide], the IC50 is 4 nM at GST-tagged SIK3, 16.9 nM on GST-tagged SIK1 and 5.6 nM on GST-tagged SIK2.
Turning to `CCOCCn1cc(-c2cc(C#N)c3c(-c4cc(OC)c5c(c4)C(C)(C)CNC5=O)n(C)nc3c2)cn1` [Example 152, 6-[1-(2-ethoxyethyl)pyrazol-4-yl]-3-(8-methoxy-4,4-dimethyl-1-oxo-2,3-dihydroisoquinolin-6-yl)-2-methylindazole-4-carbonitrile], the IC50 on GST-tagged SIK3 was found to be 14.4 nM; on GST-tagged SIK1 it was 7.2 nM; on GST-tagged SIK2 it was 3.4 nM.
For `COc1cc(-c2c3c(C#N)cc(-c4cnn(C)c4)cc3nn2C)cc2c1C(=O)NC[C@@H]2C` (single isomer, unassigned) [Example 88] the same measures were 5.3 nM, 7.4 nM and 4.5 nM.
